From ChEMBL document CHEMBL4480368, “Synthesis and potential antineoplastic activity of dehydroabietylamine imidazole derivatives” (Medchemcomm, 2018)
Calls of active or inactive are those of the source. The rule behind the calls is not given here.

Columns and labels:
HepG2 = assay: Antineoplastic activity against human HepG2 cells measured after 36 hrs by MTT assay; assay type: functional, cell-based; conditions: HepG2, 36 h
HeLa = assay: Antineoplastic activity against human HeLa cells measured after 36 hrs by MTT assay; assay type: functional, cell-based
MCF7 [1] = assay: Antineoplastic activity against human MCF7 cells measured after 36 hrs by MTT assay; assay type: functional, cell-based; conditions: MCF7, 36 h
A549 [2] = assay: Antineoplastic activity against human A549 cells measured after 36 hrs by MTT assay; assay type: functional, cell-based; conditions: A549, 36 h
HUVEC [3] = assay: Cytotoxicity against HUVEC measured after 36 hrs by MTT assay; assay type: cell-based; conditions: Homo sapiens
Salmon testes DNA [4] = assay: Binding affinity to Salmon sperm DNA assessed as hypochromic shift at 5 x 10^-5M by absorption spectra analysis; assay type: nucleic-acid assay; conditions: Salmonidae
A549 [5] = assay: Induction of apoptosis in human A549 cells assessed as early apoptotic cells at 2 ug/ml after 24 hrs by Annexin V-FITC/propidium iodide staining based flow cytometry (reference value: 6.09%); assay type: functional
A549 [6] = assay: Induction of apoptosis in human A549 cells assessed as early apoptotic cells at 1 ug/ml after 24 hrs by Annexin V-FITC/propidium iodide staining based flow cytometry (reference value: 6.09%); assay type: functional
A549 [7] = assay: Induction of apoptosis in human A549 cells assessed as early apoptotic cells at 5 ug/ml after 24 hrs by Annexin V-FITC/propidium iodide staining based flow cytometry (reference value: 6.09%); assay type: functional
MCF7 [8] = assay: Induction of apoptosis in human MCF7 cells assessed as increase in apoptotic cells after 24 hrs by Annexin V-FITC/propidium iodide staining based flow cytometry; assay type: functional, cell-based
MCF7 [9] = assay: Induction of apoptosis in human MCF7 cells assessed as decrease in viable cells after 24 hrs by Annexin V-FITC/propidium iodide staining based flow cytometry; assay type: functional, cell-based
Salmon testes DNA [10] = assay: Binding affinity to Salmon sperm DNA assessed as DNA intercalation at 1.5 x 10^-5M by ethidium bromide staining based fluorescence assay; assay type: nucleic-acid assay; conditions: Salmonidae
A549 [11] = assay: Induction of apoptosis in human A549 cells assessed as increase in apoptotic cells after 24 hrs by Annexin V-FITC/propidium iodide staining based flow cytometry; assay type: functional, cell-based
A549 [12] = assay: Induction of apoptosis in human A549 cells assessed as decrease in viable cells after 24 hrs by Annexin V-FITC/propidium iodide staining based flow cytometry; assay type: functional, cell-based
[13] = Drug internalization in human HeLa cells at 100 nM incubated for 2 hrs at 4 degC by confocal fluorescence imaging analysis; assay type: ADME, cell-based; conditions: 0.1 µM
HUVEC [14] = assay: Cytotoxicity against HUVEC; assay type: cell-based; conditions: Homo sapiens
MCF7 [15] = assay: Induction of apoptosis in human MCF7 cells assessed as early apoptotic cells at 1 ug/ml after 24 hrs by Annexin V-FITC/propidium iodide staining based flow cytometry (reference value: 2.83%); assay type: functional
MCF7 [16] = assay: Induction of apoptosis in human MCF7 cells assessed as early apoptotic cells at 5 ug/ml after 24 hrs by Annexin V-FITC/propidium iodide staining based flow cytometry (reference value: 2.83%); assay type: functional
MCF7 [17] = assay: Induction of apoptosis in human MCF7 cells assessed as early apoptotic cells at 0.1 ug/ml after 24 hrs by Annexin V-FITC/propidium iodide staining based flow cytometry (reference value: 2.83%); assay type: functional

| Structure (SMILES) | IC50 (HepG2) [µM] | IC50 (HeLa) [µM] | IC50 (MCF7 [1]) [µM] | IC50 (A549 [2]) [µM] | IC50 (HUVEC [3]) [µM] | Activity (Salmon testes DNA [4]) | other results |
| --- | --- | --- | --- | --- | --- | --- | --- |
| CC(C)c1ccc2c(c1)CC[C@H]1[C@](C)(CNC(=O)c3ncn(C)c3C(=O)NC[C@]3(C)CCC[C@]4(C)c5ccc(C(C)C)cc5CC[C@@H]34)CCC[C@]21C | 50.5 | 48.5 | 9.85 | 17 | 44.9 | Active | – |
| CC(C)c1ccc2c(c1)CC[C@H]1[C@](C)(CN)CCC[C@]21C.O=C(O)c1nc[nH]c1C(=O)O [listing 1 of 2 here] | 4.62 | 18.7 | 6.47 | 1.85 | 1.21 | – | Activity (A549 [5]): 30.64%; Activity (A549 [6]): 12.47%; Activity (A549 [7]): 76.86% |
| CC(C)c1ccc2c(c1)CC[C@H]1[C@](C)(CN)CCC[C@]21C.CC(C)c1ccc2c(c1)CC[C@H]1[C@](C)(CN)CCC[C@]21C.O=C(O)c1nc[nH]c1C(=O)O [listing 1 of 2 here] | – | – | – | – | – | Active | Activity (MCF7 [8]): Dose-dependent effect; Activity (MCF7 [9]): Dose-dependent effect; Activity (Salmon testes DNA [10]): Active |
| CC(C)c1ccc2c(c1)CC[C@H]1[C@](C)(CN)CCC[C@]21C.O=C(O)c1nc[nH]c1C(=O)O [listing 2 of 2 here] | – | – | – | – | – | – | Activity (A549 [11]): Dose-dependent effect; Activity (A549 [12]): Dose-dependent effect |
| CC(C)c1ccc2c(c1)CC[C@H]1[C@](C)(CN)CCC[C@]21C | – | – | – | – | – | – | Drug uptake [13]: Not Active |
| O=c1[nH]cc(F)c(=O)[nH]1 [FLUOROURACIL] | – | – | – | – | – | – | IC50 (HUVEC [14]): 11.7 µM |
| CC(C)c1ccc2c(c1)CC[C@H]1[C@](C)(CN)CCC[C@]21C.CC(C)c1ccc2c(c1)CC[C@H]1[C@](C)(CN)CCC[C@]21C.O=C(O)c1nc[nH]c1C(=O)O [listing 2 of 2 here] | 2.91 | 2.88 | 0.75 | 4.37 | 3.98 | – | Activity (MCF7 [15]): 39.49%; Activity (MCF7 [16]): 54.21%; Activity (MCF7 [17]): 25.4% |
| CC(C)c1ccc2c(c1)CC[C@H]1[C@](C)(CNC(=O)c3cncn3C)CCC[C@]21C | 12 | 20.9 | 2.17 | 53.2 | 57.8 | Active | – |
| CC(C)c1ccc2c(c1)CC[C@H]1[C@](C)(CNC(=O)c3ncn(C)c3C(=O)O)CCC[C@]21C | 6.52 | 16.8 | 12.1 | 12.3 | 33 | Active | – |
| COc1cccc2c1C(=O)c1c(O)c3c(c(O)c1C2=O)C[C@@](O)(C(=O)CO)C[C@@H]3O[C@H]1C[C@H](N)[C@H](O)[C@H](C)O1 [DOXORUBICIN] | – | 3.55 | 14 | 3.35 | 4.4 | – | – |
